We go through 24 compounds from patent US8551999B2, “Heterocyclic compound and pharmaceutical composition thereof” (Otsuka Pharmaceutical Co., Ltd., priority 2007, dated 2013).

The structures appear in SMILES notation.

`Br.CCCOc1ccc(CN2CCN(C(=O)c3cc4ccc(Oc5ccc(N(C)C(=O)c6ccc(OC(F)(F)F)cc6)cn5)cc4n3C)CC2)cc1` [Example 471, N-Methyl-N-(6-{1-methyl-2-[4-(4-propoxybenzyl)piperazine-1-carbonyl]-1H-indol-6-yloxy}pyridin-3-yl)-4-trifluoromethoxy-benzamide hydrobromide] yielded a melting point of 240 to 242 °C.

In turn, `Br.CC(C)Oc1ccc(CN2CCN(C(=O)c3cc4ccc(Oc5ccc(N(C)C(=O)c6ccc(OC(F)(F)F)cc6)cn5)cc4n3C)CC2)cc1` [Example 472, N-(6-{2-[4-(4-Isopropoxybenzyl)piperazine-1-carbonyl]-1-methyl-1H-indol-6-yloxy}pyridin-3-yl)-N-methyl-4-trifluoromethoxy-benzamide hydrobromide] showed a melting point of 237.2 to 238.5 °C.

`Br.Cn1c(C(=O)N2CCN(Cc3ccc(OCC(F)(F)F)cc3)CC2)cc2ccc(Oc3ccc(NC(=O)c4ccc(C(F)(F)F)cc4)cn3)cc21` [Example 474, N-[6-(1-Methyl-2-{4-[4-(2,2,2-trifluoroethoxy)benzyl]piperazine-1-carbonyl}-1H-indol-6-yloxy)pyridin-3-yl]-4-trifluoromethyl-benzamide hydrobromide] gave a melting point of 269 to 270.3 °C.

Turning to `Br.CCCOc1ccc(CN2CCN(C(=O)c3cc4ccc(Oc5ccc(NC(=O)c6ccc(C(F)(F)F)cc6)cn5)cc4n3C)CC2)cc1` [Example 475, N-(6-{1-Methyl-2-[4-(4-propoxybenzyl)piperazine-1-carbonyl]-1H-indol-6-yloxy}pyridin-3-yl)-4-trifluoromethylbenzamide hydrobromide], the melting point fell in the range of 254 to 255.7 °C.

`Br.CC(C)Oc1ccc(CN2CCN(C(=O)c3cc4ccc(Oc5ccc(NC(=O)c6ccc(C(F)(F)F)cc6)cn5)cc4n3C)CC2)cc1` [Example 476, N-(6-{2-[4-(4-Isopropoxybenzyl)piperazine-1-carbonyl]-1-methyl-1H-indol-6-yloxy}pyridin-3-yl)-4-trifluoromethylbenzamide hydrobromide] registered a melting point of 258.7 to 259.6 °C.

`Br.Cn1c(C(=O)N2CCN(Cc3ccc(OC(F)F)cc3)CC2)cc2ccc(Oc3ccc(NC(=O)c4ccc(C(F)(F)F)cc4)cn3)cc21` [Example 477, N-(6-{2-[4-(4-Difluoromethoxybenzyl)piperazine-1-carbonyl]-1-methyl-1H-indol-6-yloxy}pyridin-3-yl)-4-trifluoromethylbenzamide hydrobromide]: the melting point was 265.6 to 268.3 °C.

Take `Br.CCCc1ccc(CN2CCN(C(=O)c3cc4ccc(Oc5ccc(NC(=O)c6ccc(C(F)(F)F)cc6)cn5)cc4n3C)CC2)cc1` [Example 478, N-(6-{1-Methyl-2-[4-(4-propylbenzyl)piperazine-1-carbonyl]-1H-indol-6-yloxy}pyridin-3-yl)-4-trifluoromethylbenzamide hydrobromide]: the melting point is 267 to 268.2 °C.

`Br.Cn1c(C(=O)N2CCN(Cc3ccc(OCC(F)F)cc3)CC2)cc2ccc(Oc3ccc(NC(=O)c4ccc(C(F)(F)F)cc4)cn3)cc21` [Example 479, N-[6-(2-{4-[4-(2,2-Difluoroethoxy)benzyl]piperazine-1-carbonyl}-1-methyl-1H-indol-6-yloxy)pyridin-3-yl]-4-trifluoromethyl-benzamide hydrobromide] yielded a melting point of 260.7 to 261.2 °C.

Regarding `Br.CCCOc1ccc(CN2CCN(C(=O)c3cc4cc(Oc5ccc(NC(=O)c6ccc(C(F)(F)F)cc6)cn5)ccc4n3C)CC2)cc1` [Example 481, N-(6-{1-Methyl-2-[4-(4-propoxybenzyl)piperazine-1-carbonyl]-1H-indol-5-yloxy}pyridin-3-yl)-4-trifluoromethylbenzamide hydrobromide], the melting point was in the range of 234.7 to 235.1 °C.

The compound `Br.CN(C(=O)c1ccc(Cl)c(Cl)c1)c1ccc(Oc2ccc3cc(C(=O)N4CCN(Cc5ccc(OCCF)cc5)CC4)n(C)c3c2)nc1` [Example 482, 3,4-Dichloro-N-[6-(2-{4-[4-(2-fluoroethoxy)benzyl]piperazine-1-carbonyl}-1-methyl-1H-indol-6-yloxy)pyridin-3-yl]-N-methyl-benzamide hydrobromide] displayed a melting point of 186.9 to 188.8 °C.

Compound `Br.CN(C(=O)c1ccc(Cl)c(Cl)c1)c1ccc(Oc2ccc3cc(C(=O)N4CCN(Cc5ccc(OCC(F)F)cc5)CC4)n(C)c3c2)nc1` [Example 483, 3,4-Dichloro-N-[6-(2-{4-[4-(2,2-difluoroethoxy)benzyl]piperazine-1-carbonyl}-1-methyl-1H-indol-6-yloxy)pyridin-3-yl]-N-methyl-benzamide hydrobromide] gave a melting point of 182.4 to 184.6 °C.

`Br.CN(C(=O)c1ccc(Cl)c(Cl)c1)c1ccc(Oc2ccc3cc(C(=O)N4CCN(Cc5ccc(OCC(F)(F)F)cc5)CC4)n(C)c3c2)nc1` [Example 484, 3,4-Dichloro-N-methyl-N-[6-(1-methyl-2-{4-[4-(2,2,2-trifluoro-ethoxy)benzyl]piperazine-1-carbonyl}-1H-indol-6-yloxy)pyridin-3-yl]benzamide hydrobromide] gave a melting point of 197.1 to 201.5 °C.

Take `Br.CN(C(=O)c1ccc(Cl)c(Cl)c1)c1ccc(Oc2ccc3cc(C(=O)N4CCN(Cc5ccc(OC(CF)CF)cc5)CC4)n(C)c3c2)nc1` [Example 485, 3,4-Dichloro-N-[6-(2-{4-[4-(2-fluoro-1-fluoromethylethoxy)-benzyl]piperazine-1-carbonyl}-1-methyl-1H-indol-6-yloxy)pyridin-3-yl]-N-methylbenzamide hydrobromide]: the melting point lay in the range of 188.2 to 191.8 °C.

For `Br.CC(C)Oc1ccc(CN2CCN(C(=O)c3cc4ccc(Oc5ccc(N(C)C(=O)c6ccc(Cl)c(Cl)c6)cn5)cc4n3C)CC2)cc1` [Example 486, 3,4-Dichloro-N-(6-{2-[4-(4-isopropoxybenzyl)piperazine-1-carbonyl]-1-methyl-1H-indol-6-yloxy}pyridin-3-yl)-N-methyl-benzamide hydrobromide], the melting point was in the range of 220.2 to 223.5 °C.

`Br.CCCOc1ccc(CN2CCN(C(=O)c3cc4ccc(Oc5ccc(N(C)C(=O)c6ccc(Cl)c(Cl)c6)cn5)cc4n3C)CC2)cc1` [Example 487, 3,4-Dichloro-N-methyl-N-(6-{1-methyl-2-[4-(4-propoxybenzyl)-piperazine-1-carbonyl]-1H-indol-6-yloxy}pyridin-3-yl)benzamide hydrobromide] yielded a melting point of 204.9 to 208.5 °C.

Compound `Br.CN(C(=O)c1ccc(Cl)c(Cl)c1)c1ccc(Oc2ccc3cc(C(=O)N4CCN(Cc5ccc(OC(F)F)cc5)CC4)n(C)c3c2)nc1` [Example 488, 3,4-Dichloro-N-(6-{2-[4-(4-difluoromethoxybenzyl)piperazine-1-carbonyl]-1-methyl-1H-indol-6-yloxy}pyridin-3-yl)-N-methyl-benzamide hydrobromide] registered a melting point of 185.6 to 189.3 °C.

With `Br.CN(C(=O)c1ccc(Cl)c(Cl)c1)c1ccc(Oc2ccc3cc(C(=O)N4CCN(Cc5ccc6c(c5)OC(F)(F)O6)CC4)n(C)c3c2)nc1` [Example 489, 3,4-Dichloro-N-(6-{2-[4-(2,2-difluorobenzo[1,3]dioxol-5-yl-methyl)piperazine-1-carbonyl]-1-methyl-1H-indol-6-yloxy}pyridin-3-yl)-N-methylbenzamide hydrobromide], the melting point lay in the range of 225.4 to 227.1 °C.

As to `Cn1c(C(=O)N2CCN(Cc3ccc(OC(CF)CF)cc3)CC2)cc2ccc(Oc3ccc(NS(=O)(=O)C4=CC=C(Cl)C(C)(Cl)C4)cn3)cc21` (stereo not drawn) [Example 506, 3,4-Dichloro-N-[6-(2-{4-[4-(2-fluoro-1-fluoromethylethoxy)-benzyl]piperazine-1-carbonyl}-1-methyl-1H-indol-6-yloxy)pyridin-3-yl]-M-methylbenzenesulfonamide], the melting point lay within 157.7 to 160.2 °C.

`CN(c1ccc(Oc2ccc3cc(C(=O)N4CCN(Cc5ccc6c(c5)OC(F)(F)O6)CC4)n(C)c3c2)nc1)S(=O)(=O)c1ccc(Cl)c(Cl)c1` [Example 508, 3,4-Dichloro-N-(6-{2-[4-(2,2-difluorobenzo[1,3]dioxol-5-yl-methyl)piperazine-1-carbonyl]-1-methyl-1H-indol-6-yloxy}pyridin-3-yl)-N-methylbenzenesulfonamide] showed a melting point of 149.9 to 151.3 °C.

In the case of `Br.CCCOc1ccc(CN2CCN(C(=O)c3cc4ccc(Oc5ccc(NS(=O)(=O)c6ccc(C(F)(F)F)cc6)cn5)cc4n3C)CC2)cc1` [Example 511, N-(6-{1-Methyl-2-[4-(4-propoxybenzyl)piperazine-1-carbonyl]-1H-indol-6-yloxy}pyridin-3-yl)-4-trifluoromethylbenzenesulfonamide hydrobromide], the melting point was 223.7 to 224.8 °C.

In turn, `CN(c1ccc(Oc2ccc3cc(C(=O)N4CCN(Cc5ccc(OCC(F)F)cc5)CC4)n(C)c3c2)nc1)S(=O)(=O)c1ccc(Cl)c(Cl)c1` [Example 512, 3,4-Dichloro-N-[6-(2-{4-[4-(2,2-difluoroethoxy)benzyl]piperazine-1-carbonyl}-1-methyl-1H-indol-6-yloxy)pyridin-3-yl]-N-methyl-benzenesulfonamide] returned a melting point of 168.4 to 168.6 °C.

The compound `CN(c1ccc(Oc2ccc3cc(C(=O)N4CCN(Cc5ccc(OCCF)cc5)CC4)n(C)c3c2)nc1)S(=O)(=O)c1ccc(Cl)c(Cl)c1` [Example 513, 3,4-Dichloro-N-[6-(2-{4-[4-(2-fluoroethoxy)benzyl]piperazine-1-carbonyl}-1-methyl-1H-indol-6-yloxy)pyridin-3-yl]-N-methyl-benzenesulfonamide] yielded a melting point of 195.2 to 196.8 °C.

`CN(c1ccc(Oc2ccc3cc(C(=O)N4CCN(Cc5ccc(OCC6CC6)cc5)CC4)n(C)c3c2)nc1)S(=O)(=O)c1ccc(Cl)c(Cl)c1` [Example 514, 3,4-Dichloro-N-(6-{2-[4-(4-cyclopropylmethoxybenzyl)piperazine-1-carbonyl]-1-methyl-1H-indol-6-yloxy}pyridin-3-yl)-N-methyl-benzenesulfonamide] came in with a melting point of 194.1 to 195.8 °C.

Take `CN(c1ccc(Oc2ccc3cc(C(=O)N4CCN(Cc5ccc(OC(F)F)cc5)CC4)n(C)c3c2)nc1)S(=O)(=O)c1ccc(Cl)c(Cl)c1` [Example 515, 3,4-Dichloro-N-(6-{2-[4-(4-difluoromethoxybenzyl)piperazine-1-carbonyl]-1-methyl-1H-indol-6-yloxy}pyridin-3-yl)-N-methyl-benzenesulfonamide]: the melting point is 143.4 to 147.2 °C.

What is called melting point is the temperature of the solid-liquid transition.
